Measurements from paper PMC11579209, “Population pharmacokinetics and exposure–response relationships of maribavir in transplant recipients with cytomegalovirus infection” (Journal of Pharmacokinetics and Pharmacodynamics, 2024).
Like-named read-outs stand apart in the source and are kept apart here.

Experiment: Individual predicted steady-state PK parameters (400 mg BID) derived from the final PopPK model
Assay type: in vivo
Details: for Ctrough.ss, geometric mean (%CV) / AUC / Cmax / half-life: 400 mg BID steady state; for AUC / Cmax / half-life: human, plasma, oral, 400 mg; for AUC: read-out: AUC0–τ, geometric mean (%CV); for Cmax: read-out: Cmax.ss, geometric mean (%CV); for half-life: read-out: Half-life, geometric mean (%CV) (converted)
Description: The final model was used to derive individual estimates of steady-state AUC over one dosing interval (AUC0–τ), Cmax.ss, and minimum maribavir plasma concentration (Ctrough.ss) for a 400 mg BID dosing regimen for all participants in the PopPK analysis. Individual estimates of Cmax.ss, Ctrough.ss, and AUC0–τ were obtained by prediction of the concentration–time profiles (concentrations predicted at 0, 1, 2, 3, 4, 6, 8 and 12 h) after a steady-state dose of 400 mg BID for respective individuals using their individual post hoc parameter values in the absence of strong CYP3A4 inducers or strong CYP3A4 inhibitors, and zero values for residual variability. The PK parameters AUC0–τ (linear up/log down trapezoidal rule), Cmax.ss, and Ctrough.ss were determined by non-compartmental methods.
The mean (percentage coefficient of variation [CV%]), geometric mean (GM) CV%, median, and percentiles for AUC0–τ, Cmax.ss, and Ctrough.ss were obtained overall and by health status (healthy individuals, all transplant recipients with CMV infection, and transplant recipients with refractory CMV infection in the phase 3 SOLSTICE study). For transplant patients with CMV infections, summary statistics were provided by covariates of interest including age (18 to < 65 years and ≥ 65 years; 18 to < 65 years, 65 to < 75 years, and 75 to < 85 years), sex, race, ethnicity, body mass index (BMI; underweight [< 18.5 kg/m^2], normal weight [18.5 to < 25 kg/m^2], overweight [25 to < 30 kg/m^2], obese [≥ 30 kg/m^2]), concurrent PPI, concurrent H2 inhibitors, transplant type, baseline plasma CMV DNA (low and intermediate/high), CMV category, hepatic impairment (none, Child-Pugh Class A, Child-Pugh Class B), presence of CMV mutations at baseline, and baseline use of antilymphocyte antibody. For the PPI and H2 inhibitor analyses, PK parameters were computed only for patients receiving the relevant concomitant medication for all their PK observations and for those who never received the relevant concomitant medication. For healthy individuals, summary statistics were provided by the following covariates of interest: age (≤ 65 years, > 65 years), sex, race, ethnicity, and BMI.

[1] = all transplant patients with CMV infection, n = 485
[2] = refractory CMV infection (SOLSTICE only), n = 253
[3] = transplant patients with CMV, 400 mg BID
[4] = transplant patients with CMV, n = 5 in older group

For `CC(C)Nc1nc2cc(Cl)c(Cl)cc2n1[C@H]1O[C@@H](CO)[C@H](O)[C@@H]1O` [maribavir], the “Ctrough.ss, geometric mean (%CV)” value (all participants, n = 667) was 4.33 (89.7) μg/mL, the “Ctrough.ss, geometric mean (%CV)” value [1] was 4.90 (89.7) µg/mL and the “Ctrough.ss, geometric mean (%CV)” value (healthy volunteers, n = 133) was 2.89 (71.7) μg/mL. For the same compound, the “Ctrough.ss, geometric mean (%CV)” value [2] was 5.13 (93.0) µg/mL, the “GM AUC0-τ higher in transplant patients with CMV infection than in healthy volunteers” value (400 mg BID, steady state) was 27% and the “GM Cmax.ss higher in transplant patients with CMV infection than in healthy volunteers” value (400 mg BID, steady state) was 5%. It also gave an AUC (all participants, n = 667) of 121 µg·h/mL, a Cmax (all participants, n = 667) of 17200 ng/mL and a half-life (all participants, n = 667) of 10.9 h. For the same compound, the AUC [1] was 128 µg·h/mL, the Cmax [1] was 17200 ng/mL and the AUC (healthy volunteers, n = 133) was 101 µg·h/mL. It also gave a Cmax (healthy volunteers, n = 133) of 16400 ng/mL, a half-life (healthy volunteers, n = 133) of 9.04 h and a Cmax [2] of 16900 ng/mL. The AUC (transplant patients with refractory CMV infection (SOLSTICE only), n = 253) was 129 µg·h/mL, the “GM AUC0-τ higher in underweight (BMI < 18.5 kg/m^2) than normal-weight patients” value [3] was 24% and the “GM AUC0τ higher in female than male patients” value [3] was 19%. The “GM Cmax.ss higher in female than male patients” value [3] was 25%, the “GM Cmax.ss higher in underweight (BMI < 18.5 kg/m^2) than normal-weight patients” value [3] was 31% and the “Maribavir exposure between patients with no, Child-Pugh class A, or Child-Pugh class B hepatic impairment” value [3] was “similar”. For the same compound, the “Maribavir exposure with or without PPI” value [3] was “similar”, the “Maribavir exposure with or without histamine H2 blockers” value [3] was “similar” and the “AUC0-τ higher in patients aged 75 to < 85 years vs 18 to < 65 years” value [4] was 54%. The “Cmax.ss higher in patients aged 75 to < 85 years vs 18 to < 65 years” value [4] was 38%.
